Source: patent publication US9402827B2, “Treatment of gout” (ARDEA BIOSCIENCES, INC., priority 2010, dated 2016)

Tests used:
[1] = system: MSU-induced knee joint swelling; assay: In vivo MSU-induced inflammation, rat knee joint study (Example 3C); design: species or system Sprague-Dawley rats
Experimental: [table] Groups 1 and 2 were orally dosed with Vehicle (sterile water) once daily for seven days from Day 1. […] Groups 6 and 7 were orally dosed with Lesinurad once daily for seven days from Day 1; Group 7 also received colchicine administered subcutaneously on Day 7. […] The injection was performed from the anterior aspect of the knee joint, which was slightly extended and flexed. […] Four hours after MSU administration, the rats were anesthetized, the diameter of right knee joints were measured with calipers; surface temperature for right knees were measured. Synovial lavage fluid from the knee was collected by injecting phosphate buffered saline with 1% BSA (0.2 mL) into the joint cavity, the fluid then collected, centrifuged and the supernatants stored at −80° C.

[2] = system: IL-1β; assay: In vitro primary human monocyte assay, IL-1β; assay type: cell-based; conditions: primary human monocytes, FIG. 4A
Experimental: Blood (50-60 ml) was collected in Heparin vaccutainers (BD vaccutainer, Cat No-367874, Sodium Heparin, 10 ml tube; each holding ˜8-10 ml blood), which was immediately mixed to prevent coagulation. Accuspin-Histopaque 1077 (Sigma Aldrich cat no-A7054) was allowed to reach room temperature and diluted blood 1:1 in DPBS (Dulbecco's Phosphate-Buffered Saline (1×), liquid—Invitrogen, 14040-133), mixed by pipetting. The tubes were centrifuged (800 g; 30 seconds; room temp) to ensure all the Histopaque 1077 was below the high density polyethylene barrier.
Diluted blood (50 ml) was added to the upper chamber of each ACCUSPIN tube and centrifuged at room temp for 10 minutes at 1000×g or 15 minutes at 800×g, (brakes were off for this step; acc=1, dcl=1). PBMCs were collected from the PBS/Ficoll interphase with a transfer pipette and transferred to a new 50 mL tube. […]
Supernatant was decanted and 5 mL of RBC lysis solution added to the pellet and mixed well. […] The supernatant was discarded, resuspended in RPMI complete media, and the cells counted.
The hPBM cells isolated in step A were counted, centrifuged (300 g; 10 min) and the supernatant aspirated. […]
The centrifuged cells were then resuspended in 5 ml of MACS buffer and applied to the column. […] Cells were spun down (300 g, 5 min; supernatant discarded), resuspended in RPMI complete media and counted.

[3] = system: gout flares; assay: Phase II clinical trial in gout patients with hyperuricemia: time to first flare, flare rate (Example 5); assay type: in vivo, human; conditions: for 4 Wk % Flare (percent of patients experiencing at least one gout flare by week 4): based on ITT patient number, colchicine prophylaxis; for Time to First Flare (cumulative flare rate), Day 0 / Time to First Flare (cumulative flare rate), Day 7 / Time to First Flare (cumulative flare rate), Day 14 / Time to First Flare (cumulative flare rate), Day 21 / Time to First Flare (cumulative flare rate), Day 28: colchicine prophylaxis 0.5-0.6 mg QD
Experimental: A phase II clinical trial including 123 gout patients with hyperuricemia (serum uric acid ≧8 mg/dL) in 4 treatment arms was conducted. The trail lasted 8 weeks, comprising a 2 week run in period, 4 week treatment period and 2 week follow-up.
Patients were randomly assigned to arms 1, 2, 3 or 4 and orally administered Lesinurad according to Table 9 below and FIG. 8; all received colchicine prophylaxis (0.5-0.6 mg QD) for 2 weeks prior to Lesinurad dosing and throughout the 4 week treatment period.

[4] = system: monosodium urate crystal-induced inflammatory response; assay: Rat air pouch model of crystal-induced arthropathy (Example 3A); assay type: in vivo, Sprague-Dawley rats; conditions: Lesinurad 10, 30 and 100 mg/kg PO; MSU 150 mg; FIG. 5
Experimental: Procedure • 1. […] NaOH was added as required to maintain pH 8-9. The solution was filtered and incubated at ambient with slow stirring continuously for 24 hours. • b. Crystals were washed, dried and sterilized by autoclaving. • c. […] The rats were anesthetized and bled for sample from retro-orbital sinus into microtainer tubes. • a. The blood was processed to serum; • b. The serum was transferred to labeled Eppendorf tubes (T=0) and stored at −80° C. • c. […] DAY 0: The rats are anesthetized. • a. The nape of the neck was shaved, cleansed with 70% isopropanol followed by cleansing with Povidone. • b. A 23-gauge needle was attached to a 30 ml syringe fitted with an air filter. • c. 30 ml of sterile air was injected subcutaneously and the rat returned to routine maintenance. • 7. DAY 3: Steps 6a) through 6c) were repeated. • 8. […] Exudates volume was measured and recorded for each animal. • a. […] Mean cell counts and standard deviations were determined for each group. • b. Mean optical absorbance measurements and standard deviations were determined for each group. • c. Group means and standard deviations for TNF-alpha and IL-1 were determined for each group. • d. Statistical significance of treatments on mean cell counts, mean optical absorbance measurements and mean cytokine measurements were determined by comparison of means for treatment and positive control groups with vehicle group.

[5] = Arm 2 (200 mg week 1, 400 mg weeks 2-4)
[6] = Arm 3 (200 mg week 1, 400 mg week 2, 600 mg weeks 3-4)

`O=C(O)CSc1nnc(Br)n1-c1ccc(C2CC2)c2ccccc12` [Lesinurad, 2-(5-bromo-4-(4-cyclopropylnaphthalen-1-yl)-4H-1,2,4-triazol-3-ylthio)acetic acid] was tested, and the “Average increase in knee diameter” value ([1]; Lesinurad 60 mg/kg p.o. once daily Day1-Day7, 4 h after MSU, p < 0.001 vs Vehicle) was 0.46 mm, the “MSU-induced increase in knee diameter, in words” value ([1]; Lesinurad 60 mg/kg/day) was “significantly decreased the MSU-induced increase in knee diameter” and the IC50 ([2]; Monocyte) was roughly 50 µM. The IL-1β inhibition ([2]; 100 uM, 50 uM and 25 uM) was “dose dependent IL-1β inhibition”, the “4 Wk % Flare (percent of patients experiencing at least one gout flare by week 4)” value ([3]; Arm 1 (200 mg weeks 1-4)) was 10% and the “Time to First Flare (cumulative flare rate), Day 0” value (“Time to First Flare … Day 0” below) ([3]; Arm 1 (200 mg weeks 1-4)) was 27. For the same compound, the “Time to First Flare (cumulative flare rate), Day 7” value (“Time to First Flare … Day 7” for short) ([3]; Arm 1 (200 mg weeks 1-4)) was 27, the “Time to First Flare (cumulative flare rate), Day 14” value (from here on “Time to First Flare … Day 14”) ([3]; Arm 1 (200 mg weeks 1-4)) was 26 and the “Time to First Flare (cumulative flare rate), Day 21” value (shortened to “Time to First Flare … Day 21”) ([3]; Arm 1 (200 mg weeks 1-4)) was 25. The “Time to First Flare (cumulative flare rate), Day 28” value (“Time to First Flare … Day 28” below) ([3]; Arm 1 (200 mg weeks 1-4)) was 25, the “4 Wk % Flare (percent of patients experiencing at least one gout flare by week 4)” value [3, 5] was 12% and the “Time to First Flare … Day 0” value [3, 5] was 31. The “Time to First Flare … Day 7” value [3, 5] was 31, the “Time to First Flare … Day 14” value [3, 5] was 30 and the “Time to First Flare … Day 21” value [3, 5] was 28. For the same compound, the “Time to First Flare … Day 28” value [3, 5] was 26, the “Time to First Flare … Day 0” value [3, 6] was 33 and the “Time to First Flare … Day 7” value [3, 6] was 31. For the same compound, the “Time to First Flare … Day 14” value [3, 6] was 31, the “Time to First Flare … Day 21” value [3, 6] was 29 and the “Time to First Flare … Day 28” value [3, 6] was 29. For the same compound, the “4 Wk % Flare (percent of patients experiencing at least one gout flare by week 4)” value ([3]; Arm 3 (200/400/600/600 mg)) was 13% and the “monosodium urate crystal-induced inflammatory response (total white blood cell counts)” value [4] was “blocked”.
